Measured values published in US8802678B2, “Carbonylated (aza) cyclohexanes as dopamine D3 receptor ligands” (Bioprojet, priority 2006, dated 2014).

A melting point of 160 °C was found for `Cc1ccccc1N1CCN(CC[C@H]2CC[C@H](NC(=O)CCCC#N)CC2)CC1` [Example 428, 4-Cyano-N-{4-[2-(4-o-tolylpiperazin-1-yl)ethyl]cyclohexyl}butanamide] in this work. A melting point of 183 °C was found for `COc1ccc(C(F)(F)F)cc1N1CCN(CC[C@H]2CC[C@H](NC(=O)CC#N)CC2)CC1` [Example 165, 2-Cyano-N-(4-{2-[4-(2-methoxy-5-trifluoromethylphenyl)piperazin-1-yl]ethyl}cyclohexyl)acetamide] in this work. A melting point of 270 °C was found for `CC(=O)CN1CCC(CCN2CCN(c3cc(Cl)ccc3F)CC2)CC1.Cl.Cl` in this work. A melting point of 101 °C was found for `CCOCC(=O)N[C@H]1CC[C@H](CCN2CCN(c3ccccc3C)CC2)CC1` [Example 557] in this work. A melting point of 166 °C was found for `O=C(N[C@H]1CC[C@H](CCN2CC=C(c3ccc(F)cc3F)CC2)CC1)C1=CCCC1` in this work. A melting point of 186 °C was found for `N#CCC(=O)N[C@H]1CC[C@H](CCN2CCN(c3cc(C#N)cc(C(F)(F)F)c3)CC2)CC1` [Example 138, 2-Cyano-N-(4-{2-[4-(3-cyano-5-trifluoromethylphenyl)piperazin-1-yl]ethyl}cyclohexyl)acetamide] in this work. A melting point of 199 °C was found for `O=C(N[C@H]1CC[C@H](CCN2CCN(c3cc(F)c(F)cc3F)CC2)CC1)C1=CCCC1` [Example 523, Cyclopent-1-enecarboxylic acid (4-{2-[4-(2,4,5-trifluorophenyl)piperazin-1-yl]ethyl}cyclohexyl) amide] in this work. A melting point of 172 °C was found for `COCCCC(=O)N[C@H]1CC[C@H](CCN2CCN(c3ccccc3)CC2)CC1` [Example 99, 4-Methoxy-N-{4-[2-(4-phenylpiperazin-1-yl)ethyl]cyclohexyl}butanamide] in this work. A melting point of 227 °C was found for `COc1ccc(N2CCN(CC[C@H]3CC[C@H](NC(=O)CC#N)CC3)CC2)cc1` [Example 573, 2-Cyano-N-(4-{2-[4-(4-methoxyphenyl)piperazin-1-yl]ethyl}cyclohexyl)acetamide] in this work. A melting point of 280 °C was found for `CC(=O)CN1CCC(CCN2CCN(c3cccc4c3OCCCO4)CC2)CC1.Cl.Cl` in this work. A melting point of 139 °C was found for `COCC(=O)N[C@H]1CC[C@H](CCN2CCN(c3cc(C(F)(F)F)ccc3F)CC2)CC1` [Example 701, N-(4-{2-[4-(2-Fluoro-5-trifluoromethylphenyl)piperazin-1-yl]ethyl}cyclohexyl)-2-methoxyacetamide] in this work. A melting point of 159 °C was found for `CC(=O)CCC(=O)N[C@H]1CC[C@H](CCN2CCN(c3cccc(C(F)(F)F)c3)CC2)CC1` [Example 191, 4-Oxo-pentanoic acid (4-{2-[4-(3-trifluoromethylphenyl)piperazin-1-yl]ethyl}cyclohexyl)amide] in this work. A melting point of 169 °C was found for `Cc1cc(C)cc(N2CCN(CC[C@H]3CC[C@H](NC(=O)CCCC#N)CC3)CC2)c1` [Example 249, 4-Cyano-N-(4-{2-[4-(3,5-dimethylphenyl)piperazin-1-yl]ethyl}cyclohexyl)butanamide] in this work. A melting point of 180 to 183 °C was found for `Cc1c(Cl)cccc1N1CCN(CC[C@H]2CC[C@H](NC(=O)CCCC#N)CC2)CC1` [Example 258, N-(4-{2-[4-(3-Chloro-2-methylphenyl)piperazin-1-yl]ethyl}cyclohexyl)-4-cyanobutanamide] in this work. A melting point of 205 °C was found for `COc1ccc(N2CCN(CC[C@H]3CC[C@H](NC(=O)C4=CCCC4)CC3)CC2)cc1` [Example 571, Cyclopent-1-enecarboxylic acid (4-{2-[4-(4-methoxyphenyl)-piperazin-1-yl]ethyl}cyclohexyl) amide] in this work. A melting point of 171 °C was found for `N#CCCCC(=O)N[C@H]1CC[C@H](CCN2CCN(c3ccc(Cl)cc3F)CC2)CC1` [Example 471, N-(4-{2-[4-(4-Chloro-2-fluorophenyl)piperazin-1-yl]ethyl}cyclohexyl)-4-cyanobutanamide] in this work. A melting point of 256 °C was found for `CCCc1cccc(N2CCN(CCC3CCN(CC(C)=O)CC3)CC2)c1.Cl.Cl` in this work. A melting point of 159 °C was found for `N#CCCCC(=O)N[C@H]1CC[C@H](CCN2CCN(c3cc(F)ccc3F)CC2)CC1` [Example 442, 4-Cyano-N-(4-{2-[4-(2,5-difluorophenyl)piperazin-1-yl]ethyl}cyclohexyl)butanamide] in this work. A melting point of 209 °C was found for `O=C(N[C@H]1CC[C@H](CCN2CCN(c3ccccc3F)CC2)CC1)C1=CCCCC1` [Example 67, Cyclohex-1-enecarboxylic acid (4-{2-[4-(2-fluorophenyl)-piperazin-1-yl]ethyl}cyclohexyl)-amide] in this work. A melting point of 195 °C was found for `O=C(N[C@H]1CC[C@H](CCN2CCN(c3cccc(F)c3)CC2)CC1)C1=CCCCC1` [Example 394] in this work. A melting point of 200 °C was found for `O=C(CC(F)(F)F)N[C@H]1CC[C@H](CCN2CCN(c3ccc(F)cc3)CC2)CC1` [Example 284, 3,3,3-Trifluoro-N-(4-{2-[4-(4-fluorophenyl)piperazin-1-yl]ethyl}cyclohexyl)propanamide] in this work. A melting point of 237 °C was found for `O=C(N[C@H]1CC[C@H](CCN2CCN(c3ccc(Cl)cc3)CC2)CC1)C1=CCCC1` [Example 488, Cyclopent-1-enecarboxylic acid (4-{2-[4-(4-chlorophenyl)-piperazin-1-yl]ethyl}cyclohexyl) amide] in this work. A melting point of 225 °C was found for `O=C(N[C@H]1CC[C@H](CCN2CCN(c3cccc(F)c3F)CC2)CC1)C1=CCCC1` [Example 447, Cyclopent-1-enecarboxylic acid (4-{2-[4-(2,3-difluorophenyl)-piperazin-1-yl]ethyl}cyclohexyl) amide] in this work. A melting point of 291 °C was found for `CC(=O)CN1CCC(CCN2CC=C(c3cccc4c3CCC4)CC2)CC1.Cl.Cl` in this work. A melting point of 162 °C was found for `Cc1c(N2CCN(CC[C@H]3CC[C@H](NC(=O)CCCC#N)CC3)CC2)cccc1C(F)(F)F` [Example 230, 4-Cyano-N-(4-{2-[4-(2-methyl-3-trifluoromethylphenyl)piperazin-1-yl]ethyl}cyclohexyl)butanamide] in this work. A melting point of 158 to 159 °C was found for `N#CCCCC(=O)N[C@H]1CC[C@H](CCN2CCN(c3cc(F)cc(Cl)c3)CC2)CC1` [Example 259, N-(4-{2-[4-(3-Chloro-5-fluorophenyl)piperazin-1-yl]ethyl}cyclohexyl)-4-cyanobutanamide] in this work. A melting point of 203 °C was found for `N#CCCCC(=O)N[C@H]1CC[C@H](CCN2CCN(c3ccc(F)c(C#N)c3F)CC2)CC1` [Example 688, 4-Cyano-N-(4-{2-[4-(3-cyano-2,4-difluorophenyl)piperazin-1-yl]ethyl}cyclohexyl)butanamide] in this work. A melting point of 146 °C was found for `COCC(=O)N[C@H]1CC[C@H](CCN2CCN(c3ccc(F)c(C(F)(F)F)c3)CC2)CC1` [Example 760, N-(4-{2-[4-(4-Fluoro-3-trifluoromethylphenyl)piperazin-1-yl]ethyl}cyclohexyl)-2-methoxyacetamide] in this work. A melting point of 133 to 134 °C was found for `N#CCCCC(=O)N[C@H]1CC[C@H](CCN2CCN(c3cccc(OC(F)(F)F)c3)CC2)CC1` [Example 206, 4-Cyano-N-(4-{2-[4-(3-trifluoromethoxyphenyl)piperazin-1-yl]ethyl}cyclohexyl)butanamide] in this work. A melting point of 142 °C was found for `O=C(N[C@H]1CC[C@H](CCN2CCN(c3cccc(C(F)(F)F)c3)CC2)CC1)C1=CCCCO1` [Example 562, 5,6-Dihydro-4H-pyran-2-carboxylic acid (4-{2-[4-(3-trifluoromethylphenyl)piperazin-1-yl]ethyl}cyclohexyl) amide] in this work.
